Patent US20180078615A1, “USE OF CCL2 TO INHIBIT ABNORMAL UTERINE BLEEDING” (UNIVERSITY OF SOUTH FLORIDA, priority 2015, published 2018)

Columns and labels:
VSMCs [1] = test: VSMC proliferation assay by BrdU incorporation; assay type: cell-based, human; conditions: 10^−7 M, 48-h treatment, mean±SEM; control 0.81±0.03
Procedure: VSMCs were grown in 96-well plates or 8-well chamber slides and incubated with 10^−7 M of MPA (Sigma-Aldrich) or ETO (Organon) or P4 (Sigma-Aldrich) or vehicle±rCCL2 (R&D Systems)±STAT1 inhibitor, 5′-methyl-thioadenosine (MTA; EMD Millipore) (19) for 48 or 72 h. VSMCs were then analyzed for apoptosis by an ELISA based apoptosis kit (Roche) or cleaved-caspase 3 immunostaining. VSMC proliferation was measured by BrdU incorporation Kit (Cell Signaling). (See further details in SI Materials and Methods).
VSMCs were thawed and cultured in T-75 cell culture flasks in medium 231 (M231; Life Technologies) with smooth muscle growth supplement (5% FBS; 2 ng/mL human basic fibroblast growth factor, 0.5 ng/mL human epidermal growth factor, 5 ng/mL heparin, 0.2 μg/mL insulin and 5 μg/mL BSA; Life Technologies) with 100 U/mL penicillin, 100 μg/mL streptomycin, and 0.25 μg/mL fungizone. Confluent VSMCs were washed twice with 1×PBS to remove residual serum, and then passaged (5,000 cells per well) in 96-well plates and incubated in parallel in M231 with 1% charcoal striped FBS with 0.1% ethanol (vehicle, control), 10^−7 M MPA (Sigma-Aldrich), 10^−7 M ETO (Organon), or 10^−7 M P4 (Sigma-Aldrich)±rCCL2 (monocyte chemotactic protein-1; R&D Systems)±STAT1 inhibitor, 5′-methyl-thioadenosine (MTA; EMD Millipore) for 48 or 72 h.
BrdU (Cell Signaling) 1× in 100-μL M231 was added to each well during the final 24 h of incubation. At the end of 48- or 72-h incubation period, medium was removed and the wells washed twice with ice-cold PBS. VSMC proliferation was measured using BrdU cell proliferation Kit (Cell Signaling) at room temperature. Cells was incubated in 100 μL per well of the fixing/denaturing solution for 30 min, and then replaced by 100 μL per well BrdU detection antibody solution for 1 h. Following three rinses with wash buffer, plates were incubated in HRP-conjugated secondary antibody (100 μL per well) for 30 min. After three additional rinses with wash buffer, tetramethylbenzidine substrate solution (100 μL per well) was added for 20 min and the reaction stopped by adding 100 μL per well STOP solution. Absorbance was measured at 450 nm using Spectra Max190 microplate reader (Molecular Devices) to detect BrdU incorporation in each well.

VSMCs [2] = test: Whole genome microarray analysis (Illumina HumanHT-12 v4) of cultured VSMCs treated with progestins; assay type: cell-based, human; conditions: VSMCs treated by P4
From the text: Cultured VSMCs (n=3) treated with control medium or medium containing medroxyprogesterone acetate (MPA, 10^−7 M), or etonogestrel (ETO, 10^−7 M) were processed for whole genome analyses using Illumina Human microarray kit. After qRT-PCR confirmation of several up and down regulated genes from microarray data, Ingenuity Pathway Analysis (IPA) determined relevant upstream signaling of LAPC altered gene expression. To investigate the role of genes and relevant signaling molecules identified by IPA, VSMCs (n=3) treated with MPA or ETO±1 or 10 ng/ml recombinant CCL2 (rCCL2)±STAT1 inhibitor, 5′-methyl-thioadenosine (MTA, 100 μM) were analyzed by BrdU incorporation proliferation, TUNEL based ELISA apoptosis and Transwell insert migration assays.
VSMCs were thawed and cultured in medium 231 (M231; Life Technologies) with smooth muscle growth supplement (5% FBS; 2 ng/mL human basic fibroblast growth factor, 0.5 ng/mL human epidermal growth factor, 5 ng/mL heparin, 0.2 μg/mL insulin and 5 μg/mL BSA; Life Technologies) with 100 U/mL penicillin, 100 μg/mL streptomycin, 0.25 μg/mL fungizone. Confluent VSMCs were washed twice with 1×PBS to remove residual serum, passaged in 96-well or 6-well plates and incubated in parallel in M231 with 1% charcoal striped FBS with 0.1% ethanol (vehicle, control) or 10^−7 M MPA (Sigma-Aldrich) or 10^−7 M ETO (Organon) or 10^−7 M P4 (Sigma-Aldrich) for 15 min, 6, 48, and 72 h. VSMCs were then washed with ice-cold PBS and stored at −80° C. for further RNA and protein analyses.
Total RNA was isolated using Qiagen miRNeasy Mini Kit (Qiagen) and RNeasy MinElute Cleanup Kit (Qiagen). The quality of isolated RNAs was confirmed using an Agilent 2100 Bioanalyzer. Microarray analysis was limited to those specimens in which RNA Integrity Number exceeded 8. Microarray processes were performed in the Keck Biotechnology Resource Laboratory at Yale University (New Haven, Conn.) using Illumina Human HT-12 v4 BeadChip (Illumina). Raw data without normalization were analyzed by GeneSpring GX12.5 software (Agilent Technologies-Silicon Genetics). Normalization was performed as described (35). Genes with a fold-change >1.25 and a P value<0.05 were considered differentially expressed. Ingenuity Pathway Analysis (IPA) software (Qiagen) explored molecular and biological networks related to differentially expressed genes.

## CC(=O)[C@H]1CC[C@H]2[C@@H]3CCC4=CC(=O)CC[C@]4(C)[C@H]3CC[C@]12C [P4, progesterone]
VSMCs [1]
  BrdU incorporation: 0.71±0.05
VSMCs [2]
  Fold-change, Chemokine (C-C motif) ligand 2 (CCL2): −1.289
  Fold-change, Chromosome 9 ORF 167 (C9orf167): −1.283
  Fold-change, Complement factor B (CFB): −1.309
  Fold-change, Complement factor H, transcript variant 2 (CFH): 1.271
  Fold-change, Cyclin C, transcript variant 2 (CCNC): 1.343
  Fold-change, Eukaryotic translation initiation factor 4 gamma, 2, transcript variant 1 (EIF4G2): 1.3
  Fold-change, Fukutin, transcript variant 2 (FKiTN): −1.299
  Fold-change, G protein-coupled receptor 1 (GPR1): −1.283
  Fold-change, Homo sapiens thioredoxin domain containing 5, transcript variant 2 (TXNDC5): 1.361
  Fold-change, Hypothetical LOC100190938 (LOC100190938), transcript variant 2, noncoding RNA: −1.358
  Fold-change, Hypothetical gene supported by AK125735 (LOC441087): −1.467
  Fold-change, Hypothetical protein FLJ40504 (FLJ40504): −1.27
  Fold-change, Hypoxia-inducible factor 1, a subunit, transcript variant 1 (HIF1A): 1.328
  Fold-change, Integrin beta 1, transcript variant 1C-2 (ITGB1): 1.293
  Fold-change, Interleukin 33 (IL33): 1.275
  Fold-change, Janus kinase 1 (JAK1): 1.292
  Fold-change, Keratin 34 (KRT34): 1.268
  Fold-change, Microtubule-associated protein 1A (MAP1A): −1.269
  Fold-change, Minichromosome maintenance complex component 8, transcript variant 1 (MCM8): −1.32
  Fold-change, Mitogen-activated protein kinase kinase 2 (MAP2K2): −1.346
  Fold-change, N-deacetylase/N-sulfotransferase (heparan glucosaminyl) 1 (NDST1): −1.306
  Fold-change, OCIA domain containing 1, transcript variant 5 (OCIAD1): −1.275
  Fold-change, PREDICTED: misc_RNA (LOC100131609): 1.266
  Fold-change, Paralemmin, transcript variant 1 (PALM): −1.26
  Fold-change, Polyribonucleotide nucleotidyltransferase 1 (PNPT1): −1.286
  Fold-change, Retinoic acid receptor responder (tazarotene induced) 1, transcript variant 1, (RARRES1): −1.271
  Fold-change, Retinoic acid receptor responder (tazarotene induced) 1, transcript variant 2, (RARRES1): −1.289
  Fold-change, Ring finger protein 11 (RNF11): 1.256
  Fold-change, Serum amyloid A1, transcript variant 1 (SAA1): −1.324
  Fold-change, Serum amyloid A1 transcript variant 2 (SAA1): −1.566
  Fold-change, Solute carrier family 44, member 1 (SLC44A1): 1.26
  Fold-change, Staphylococcal nuclease and tudor domain containing 1 (SN D1): −1.25
  Fold-change, Sterol-C4-methyl oxidase-like, transcript variant 1 (SC4MOL): 1.296
  Fold-change, Superoxide dismutase 2, mitochondria! transcript variant 2 (SOD2): −1.362
  Fold-change, Thioredoxin reductase 1, transcript variant 4 (TXNRD1): 1.255
  Fold-change, Ubiquitin-like modifier activating enzyme 3, transcript variant 2 (UBA3): 1.293
  Fold-change, Zinc finger protein 682, transcript variant 1 (ZNF682): −1.254
  Fold-change, cDNA FLJ20769 fis, clone COL06674 (PREDICTED: Receptor tyrosine kinase-like orphan receptor 1): 1.271
VSMCs [2]; table entry 5
  Fold-change, Armadillo repeat containing, X-linked 3, transcript variant 2 (ARMCX3): 1.298
VSMCs [2]; table entry 10
  Fold-change, Armadillo repeat containing, X-linked 3, transcript variant 2 (ARMCX3): 1.284
